IC50 data for 18 compounds are collected here from US20260285875A1, “INHIBITORS OF PARG” (858 Therapeutics, Inc., priority 2023, published 2026).

The target of this test is T1, cellular PARG (Homo sapiens, UniProt Q86W56).
T1 construct: endogenous in cells; host or cells: HeLa
Put plainly: Nuclear PAR accumulation assay (immunofluorescence high-content imaging, MMS-treated HeLa cells). To be noted: 1 hour compound then MMS 50 μg/mL for an additional hour. It is filed as cell-based. In a few lines:
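HeLa cells pretreated with compound for 1 h at 37° C, then given 50 μg/mL MMS for another hour. After methanol fixation, PAR was immunostained with DAPI nuclear counterstain; per-nucleus intensity and percent PAR-positive cells were imaged at 20× (≥1,000 cells/well). IC50 from four-parameter logistic fit.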

T1 sequence (Q86W56 whole entry): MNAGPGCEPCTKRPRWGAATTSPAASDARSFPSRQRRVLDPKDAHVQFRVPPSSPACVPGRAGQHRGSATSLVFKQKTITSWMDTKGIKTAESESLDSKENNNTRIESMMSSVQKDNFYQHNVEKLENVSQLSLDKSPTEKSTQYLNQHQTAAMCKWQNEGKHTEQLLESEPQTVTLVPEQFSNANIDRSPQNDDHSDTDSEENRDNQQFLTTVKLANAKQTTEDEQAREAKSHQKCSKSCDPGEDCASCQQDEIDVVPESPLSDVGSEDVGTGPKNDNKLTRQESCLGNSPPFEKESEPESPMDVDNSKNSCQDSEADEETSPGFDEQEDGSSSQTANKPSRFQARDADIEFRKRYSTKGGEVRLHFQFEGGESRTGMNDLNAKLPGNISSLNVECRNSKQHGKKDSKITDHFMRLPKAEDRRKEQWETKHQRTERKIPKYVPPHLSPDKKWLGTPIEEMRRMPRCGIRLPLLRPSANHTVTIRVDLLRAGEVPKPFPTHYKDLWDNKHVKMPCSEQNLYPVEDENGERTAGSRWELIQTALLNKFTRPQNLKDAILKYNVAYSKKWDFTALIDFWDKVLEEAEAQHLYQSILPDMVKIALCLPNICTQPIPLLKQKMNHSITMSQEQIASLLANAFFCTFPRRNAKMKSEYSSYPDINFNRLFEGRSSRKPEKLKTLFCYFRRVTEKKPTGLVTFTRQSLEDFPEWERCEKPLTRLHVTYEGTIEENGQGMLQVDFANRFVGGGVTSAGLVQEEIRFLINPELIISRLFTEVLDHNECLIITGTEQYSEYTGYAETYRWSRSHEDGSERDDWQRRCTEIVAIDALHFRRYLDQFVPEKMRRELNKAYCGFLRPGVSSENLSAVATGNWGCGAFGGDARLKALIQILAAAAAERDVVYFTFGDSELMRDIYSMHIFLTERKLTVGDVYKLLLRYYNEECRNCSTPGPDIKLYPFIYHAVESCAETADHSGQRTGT

As to `Cn1cc(CN2C(=O)c3cc(S(=O)(=O)NC4(C)CC4)ccc3N3C2=NC[C@H]3C#Cc2cnc3cccnn23)cn1` [Example 221, (R)-1-(imidazo[1,2-b]pyridazin-3-ylethynyl)-4-((1-methyl-1H-pyrazol-4-yl)methyl)-N-(1-methylcyclopropyl)-5-oxo-1,2,4,5-tetrahydroimidazo[1,2-a]quinazoline-7-sulfonamide], the 50% inhibitory concentration (IC50) (commonly the concentration needed to halve the response being measured) is less than 100 nM.
`[2H]C([2H])(c1cnn(C)c1)N1C(=O)c2cc(S(=O)(=O)NC3(C)CC3)c(NC)cc2N2C1=N[C@H]1CCC[C@H]12` [Example 222, (7aS,10aR)-6-((1-methyl-1H-pyrazol-4-yl)methyl-d2)-2-(methylamino)-N-(1-methylcyclopropyl)-5-oxo-6,7a,8,9,10,10a-hexahydro-5H-cyclopenta[4,5]imidazo[1,2-a]quinazoline-3-sulfonamide] showed a half-maximal inhibitory concentration (IC50) of less than 100 nM.
In the case of `C[C@@H]1CN=C2N(Cc3cccnc3C#N)C(=O)c3cc(S(=O)(=O)NC4(C)CC4)c(F)cc3N21` [Example 223, (R)-4-((2-cyanopyridin-3-yl)methyl)-8-fluoro-1-methyl-N-(1-methylcyclopropyl)-5-oxo-1,2,4,5-tetrahydroimidazo[1,2-a]quinazoline-7-sulfonamide] it was 100 to 1000 nM; in that of `CN1C(=O)c2cc(S(=O)(=O)NC3(C)CC3)ccc2N2C1=NCC2C#Cc1ccnc(F)c1` (stereo not drawn) [Example 224, 1-((2-fluoropyridin-4-yl)ethynyl)-4-methyl-N-(1-methylcyclopropyl)-5-oxo-1,2,4,5-tetrahydroimidazo[1,2-a]quinazoline-7-sulfonamide], less than 100 nM.
For the compound `Cc1cccc(C#CC2CN=C3N(C)C(=O)c4cc(S(=O)(=O)NC5(C)CC5)ccc4N32)n1` (stereo not drawn) [Example 225, 4-methyl-N-(1-methylcyclopropyl)-1-((6-methylpyridin-2-yl)ethynyl)-5-oxo-1,2,4,5-tetrahydroimidazo[1,2-a]quinazoline-7-sulfonamide], the IC50 was less than 100 nM.
The figure for `CN1C(=O)c2cc(S(=O)(=O)NC3(C)CC3)ccc2N2C1=NCC2C#Cc1ccnc(C(F)(F)F)c1` (stereo not drawn) [Example 226, 4-methyl-N-(1-methylcyclopropyl)-5-oxo-1-((2-(trifluoromethyl)pyridin-4-yl)ethynyl)-1,2,4,5-tetrahydroimidazo[1,2-a]quinazoline-7-sulfonamide] is 100 to 1000 nM.
Compound `COc1cc(C#CC2CN=C3N(C)C(=O)c4cc(S(=O)(=O)NC5(C)CC5)ccc4N32)ccn1` (stereo not drawn) [Example 227, 1-((2-methoxypyridin-4-yl)ethynyl)-4-methyl-N-(1-methylcyclopropyl)-5-oxo-1,2,4,5-tetrahydroimidazo[1,2-a]quinazoline-7-sulfonamide] yielded a half-maximal inhibitory concentration (IC50) of less than 100 nM.
The compound `CCN1C(=O)c2cc(S(=O)(=O)NC3(C)CC3)ccc2N2C1=NC[C@H]2C#Cc1cc(C2CC2)nn1C` [Example 228, (R)-1-((3-cyclopropyl-1-methyl-1H-pyrazol-5-yl)ethynyl)-4-ethyl-N-(1-methylcyclopropyl)-5-oxo-1,2,4,5-tetrahydroimidazo[1,2-a]quinazoline-7-sulfonamide] gave a 50% inhibitory concentration (IC50) of less than 100 nM.
In turn, `CN1CCN(C2(C#C[C@@H]3CN=C4N(C)C(=O)c5cc(S(=O)(=O)NC6(C)CC6)ccc5N43)CC2)CC1` [Example 229, (R)-4-methyl-N-(1-methylcyclopropyl)-1-((1-(4-methylpiperazin-1-yl)cyclopropyl)ethynyl)-5-oxo-1,2,4,5-tetrahydroimidazo[1,2-a]quinazoline-7-sulfonamide] showed an IC50 of 100 to 1000 nM.
`C[C@@H]1CN=C2N(Cc3cn(C)nc3C3CC3)C(=O)c3cc(S(=O)(=O)NC4(C)CC4)ccc3N21` [Example 230, (R)-4-((3-cyclopropyl-1-methyl-1H-pyrazol-4-yl)methyl)-1-methyl-N-(1-methylcyclopropyl)-5-oxo-1,2,4,5-tetrahydroimidazo[1,2-a]quinazoline-7-sulfonamide] came in with an IC50 of less than 100 nM.
The figure for `[2H]C([2H])(c1cnn(C)c1)N1C(=O)c2cc(S(=O)(=O)NC3(C)CC3)ccc2N2C1=NC[C@H]2C#Cc1cc(C)nn1C` [Example 231, (R)-1-((1,3-dimethyl-1H-pyrazol-5-yl)ethynyl)-4-((1-methyl-1H-pyrazol-4-yl)methyl-d2)-N-(1-methylcyclopropyl)-5-oxo-1,2,4,5-tetrahydroimidazo[1,2-a]quinazoline-7-sulfonamide] is less than 100 nM.
For `[2H]C([2H])(c1cnn(C)c1)N1C(=O)c2cc(S(=O)(=O)NC3(C)CC3)ccc2N2C1=NC[C@H]2C#Cc1cn(C)nc1C` [Example 232, (R)-1-((1,3-dimethyl-1H-pyrazol-4-yl)ethynyl)-4-((1-methyl-1H-pyrazol-4-yl)methyl-d2)-N-(1-methylcyclopropyl)-5-oxo-1,2,4,5-tetrahydroimidazo[1,2-a]quinazoline-7-sulfonamide], the IC50 was less than 100 nM.
In the case of `C[C@@H]1CN=C2N(Cc3ccc(C#N)nc3)C(=O)c3cc(S(=O)(=O)NC4(C)CC4)ccc3N21` [Example 233, (R)-4-((6-cyanopyridin-3-yl)methyl)-1-methyl-N-(1-methylcyclopropyl)-5-oxo-1,2,4,5-tetrahydroimidazo[1,2-a]quinazoline-7-sulfonamide], the 50% inhibitory concentration (IC50) was less than 100 nM.
`[2H]C([2H])(c1cnn(C)c1)N1C(=O)c2cc(S(=O)(=O)NC3(C)CC3)c(N)cc2N2C1=N[C@H]1CCC[C@H]12` [Example 234, (7aS,10aR)-2-amino-6-((1-methyl-1H-pyrazol-4-yl)methyl-d2)-N-(1-methylcyclopropyl)-5-oxo-6,7a,8,9,10,10a-hexahydro-5H-cyclopenta[4,5]imidazo[1,2-a]quinazoline-3-sulfonamide] gave an IC50 of less than 100 nM.
Compound `C[C@@H]1C[C@H](C)N2C(=N1)N(Cc1cnn(C)c1)C(=O)c1cc(S(=O)(=O)NC3(C)CC3)ccc12` [Example 235, (1S,3R)-1,3-dimethyl-5-((1-methyl-1H-pyrazol-4-yl)methyl)-N-(1-methylcyclopropyl)-6-oxo-2,3,5,6-tetrahydro-1H-pyrimido[1,2-a]quinazoline-8-sulfonamide] came in with an IC50 of 100 to 1000 nM.
In the case of `C[C@@H]1C[C@@H](C)N2C(=N1)N(Cc1cnn(C)c1)C(=O)c1cc(S(=O)(=O)NC3(C)CC3)ccc12` [Example 236, (1R,3R)-1,3-dimethyl-5-((1-methyl-1H-pyrazol-4-yl)methyl)-N-(1-methylcyclopropyl)-6-oxo-2,3,5,6-tetrahydro-1H-pyrimido[1,2-a]quinazoline-8-sulfonamide], the IC50 is less than 100 nM.
For the compound `[2H]C([2H])(c1cnn(C)c1)N1C(=O)c2cc(S(=O)(=O)NC3(CO)CC3)ccc2N2C1=NC[C@H]2C` [Example 237, (R)-N-(1-(hydroxymethyl)cyclopropyl)-1-methyl-4-((1-methyl-1H-pyrazol-4-yl)methyl-d2)-5-oxo-1,2,4,5-tetrahydroimidazo[1,2-a]quinazoline-7-sulfonamide], the 50% inhibitory concentration (IC50) was in the range of 1000 to 10000 nM.
Regarding `Cc1cc(C#C[C@@H]2CN=C3N(Cc4cnn(C)c4)C(=O)c4cc(S(=O)(=O)NC5(C)CC5)ccc4N32)ccn1` [Example 238, (R)-4-((1-methyl-1H-pyrazol-4-yl)methyl)-N-(1-methylcyclopropyl)-1-((2-methylpyridin-4-yl)ethynyl)-5-oxo-1,2,4,5-tetrahydroimidazo[1,2-a]quinazoline-7-sulfonamide], the IC50 is less than 100 nM.
